Measured values as given in patent publication US8952024B2, “Herbicidal pyrimidone derivatives” (E I du Pont de Nemours and Company, priority 2009, dated 2015).

Tests used:
Format in all cases: in vivo
[1] = test system: wild oat (Avena fatua); assay: Test C plant response; conditions: Preemergence, scale 0 to 100
[2] = test system: winter wheat (Triticum aestivum); assay: Test C plant response; conditions: Preemergence, scale 0 to 100
[3] = test system: wild radish (Raphanus raphanistrum); assay: Test C plant response; conditions: Preemergence, scale 0 to 100
[4] = test system: pigweed (Amaranthus retroflexus); assay: Test C plant response; conditions: Preemergence, scale 0 to 100
[5] = test system: Russian thistle (Salsola iberica); assay: Test F combination of compound 2 with bromoxynil, postemergence; conditions: 15 days, mean of three replicates, scale 0 to 100
Method: Test F evaluated the effect of combining compound 2 with bromoxynil. The test species for this experiment was Russian thistle (Salsola iberica), which was prepared by sowing seeds into a blend of loam soil and sand. Test chemicals were formulated in a non-phytotoxic solvent mixture that included a surfactant and applied postemergence to plants ranging in height from 12 to 20 cm. […] Treatments consisted of Compound 2, bromoxynil, or their combination, using a spray volume of 457 L/ha. Each treatment was replicated three times. Treated plants and untreated controls were maintained in a greenhouse for 15 days, after which time all plants were visually evaluated and compared to the untreated controls. […] Colby's Equation was used to determine the herbicidal effects expected from the mixtures. Colby's Equation (Colby, S.

[6] = test system: field violet (Viola arvensis); assay: Test C plant response; conditions: Preemergence, scale 0 to 100
[7] = test system: transplanted rice seedlings (Oryza sativa cv. ‘Japonica—M202’); assay: Test E flooded paddy rice and weeds; conditions: applied to paddy water, 21 days, scale 0 to 100
Description: (§1) Three plastic pots (ca. 16-cm diameter) for each application were partially filled with sterilized Tama silt loam soil comprising a 35:50:15 ratio of sand, silt and clay and 2.6% organic matter. Separate plantings for each of the three pots were as follows. Seeds from the U.S. of ducksalad (Heteranthera limosa), sedge (smallflower umbrella sedge, Cyperus difformis), ricefield bulrush (Scirpus mucronatus) and redstem (purple redstem, Ammannia coccinea), were planted into one 16-cm pot for each rate. Seeds from the U.S. of flatsedge (rice flatsedge, Cyperus iria), sprangletop (bearded (i.e. Brdd.) sprangletop, Leptochloa fascicularis), one stand of 9 or 10 water seeded rice seedlings (Oryza sativa cv. ‘Japonica—M202’), and two stands of 3 or 4 transplanted rice seedlings (Oryza sativa cv. ‘Japonica—M202’) were planted into one 16-cm pot for each rate. Seeds from the U.S. of barnyardgrass (Echinochloa crus-galli), late watergrass (Echinochloa oryzicola), early watergrass (Echinochloa oryzoides) and junglerice (Echinochloa colona) were planted into one 16-cm pot for each rate. Plantings were sequential so that crop and weed species were at the 2.0 to 2.5-leaf stage at time of treatment.
(§2) Potted plants were grown in a greenhouse with day/night temperature settings of 30/27° C., and supplemental balanced lighting was provided to maintain a 16-hour photoperiod. Test pots were maintained in the greenhouse until test completion.
(§3) At time of treatment, test pots were flooded to 3 cm above the soil surface, treated by application of test compounds directly to the paddy water, and then maintained at that water depth for the duration of the test. Effects of treatments on rice and weeds were visually evaluated by comparison to untreated controls after 21 days. Plant response ratings, summarized in Table E, are based on a scale of 0 to 100 where 0 is no effect and 100 is complete control. A dash (-) response means no test result.

[8] = test system: redstem (purple redstem, Ammannia coccinea); assay: Test E flooded paddy rice and weeds; conditions: applied to paddy water, 21 days, scale 0 to 100
Description: as §1, §2, §3

[9] = test system: sedge (smallflower umbrella sedge, Cyperus difformis); assay: Test E flooded paddy rice and weeds; conditions: applied to paddy water, 21 days, scale 0 to 100
Description: as §1, §2, §3

[10] = test system: water seeded rice seedlings (Oryza sativa cv. ‘Japonica—M202’); assay: Test E flooded paddy rice and weeds; conditions: applied to paddy water, 21 days, scale 0 to 100
Description: as §1, §2, §3

[11] = test system: sprangletop (bearded (i.e. Brdd.) sprangletop, Leptochloa fascicularis); assay: Test E flooded paddy rice and weeds; conditions: applied to paddy water, 21 days, scale 0 to 100
Description: as §1, §2, §3

[12] = test system: ricefield bulrush (Scirpus mucronatus); assay: Test E flooded paddy rice and weeds; conditions: applied to paddy water, 21 days, scale 0 to 100
Description: as §1, §2, §3

[13] = test system: early watergrass (Echinochloa oryzoides); assay: Test E flooded paddy rice and weeds; conditions: applied to paddy water, 21 days, scale 0 to 100
Description: as §1, §2, §3

[14] = test system: barnyardgrass (Echinochloa crus-galli); assay: Test E flooded paddy rice and weeds; conditions: applied to paddy water, 21 days
Description: as §1, §2, §3

[15] = test system: flatsedge (rice flatsedge, Cyperus iria); assay: Test E flooded paddy rice and weeds; conditions: applied to paddy water, 21 days, scale 0 to 100
Description: as §1, §2, §3

[16] = test system: ducksalad (Heteranthera limosa); assay: Test E flooded paddy rice and weeds; conditions: applied to paddy water, 21 days, scale 0 to 100
Description: as §1, §2, §3

[17] = test system: late watergrass (Echinochloa oryzicola); assay: Test E flooded paddy rice and weeds; conditions: applied to paddy water, 21 days, scale 0 to 100
Description: as §1, §2, §3

[18] = test system: junglerice (Echinochloa colona); assay: Test E flooded paddy rice and weeds; conditions: applied to paddy water, 21 days, scale 0 to 100
Description: as §1, §2, §3

O=C1CCCC(O)=C1C(=O)c1cnc(-c2ccccc2)n(-c2ccccc2)c1=O [Compound 2, 5-[(2-hydroxy-6-oxo-1-cyclohexen-1-yl)carbonyl]-2,3-diphenyl-4(3H)-pyrimidinone]
Plant response rating: Oat, Wild ([1]; 62 g ai/ha): 0
Plant response rating: Oat, Wild ([1]; 125 g ai/ha): 0
Plant response rating: Oat, Wild ([1]; 16 g ai/ha): 0
Plant response rating: Oat, Wild ([1]; 31 g ai/ha): 0
Plant response rating: Wheat, Winter ([2]; 62 g ai/ha): 0
Plant response rating: Wheat, Winter ([2]; 125 g ai/ha): 0
Plant response rating: Wheat, Winter ([2]; 16 g ai/ha): 0
Plant response rating: Wheat, Winter ([2]; 31 g ai/ha): 0
Plant response rating: Radish, Wild ([3]; 62 g ai/ha): 0
Plant response rating: Radish, Wild ([3]; 125 g ai/ha): 0
Plant response rating: Radish, Wild ([3]; 16 g ai/ha): 0
Plant response rating: Radish, Wild ([3]; 31 g ai/ha): 0
Plant response rating: Pigweed ([4]; 62 g ai/ha): 65
Plant response rating: Pigweed ([4]; 125 g ai/ha): 85
Plant response rating: Pigweed ([4]; 16 g ai/ha): 0
Plant response rating: Pigweed ([4]; 31 g ai/ha): 20
Russian Thistle Obsd. (observed effect) ([5]; Cmpd 2 62 g a.i./ha alone): 42
Russian Thistle Obsd. (observed effect) ([5]; Cmpd 2 125 g a.i./ha alone): 52
Plant response rating: Field Violet ([6]; 62 g ai/ha): 0
Plant response rating: Field Violet ([6]; 125 g ai/ha): 0
Plant response rating: Field Violet ([6]; 16 g ai/ha): 0
Plant response rating: Field Violet ([6]; 31 g ai/ha): 0

COc1cccc(-n2c(-c3ccccc3)ncc(C(=O)C3=C(O)CCCC3=O)c2=O)c1 [Compound 19]
Plant response rating, Rice, Transplanted, Flood ([7]; 64 g ai/ha): 0
Plant response rating, Rice, Transplanted, Flood ([7]; 125 g ai/ha): 35
Plant response rating, Rice, Transplanted, Flood ([7]; 250 g ai/ha): 40
Plant response rating, Rice, Transplanted, Flood ([7]; 500 g ai/ha): 65
Plant response rating, Redstem, Flood ([8]; 64 g ai/ha): 0
Plant response rating, Redstem, Flood ([8]; 125 g ai/ha): 90
Plant response rating, Redstem, Flood ([8]; 250 g ai/ha): 90
Plant response rating, Redstem, Flood ([8]; 500 g ai/ha): 85
Plant response rating, Sedge, Umbrella, Flood ([9]; 64 g ai/ha): 90
Plant response rating, Sedge, Umbrella, Flood ([9]; 125 g ai/ha): 100
Plant response rating, Sedge, Umbrella, Flood ([9]; 250 g ai/ha): 100
Plant response rating, Sedge, Umbrella, Flood ([9]; 500 g ai/ha): 100
Plant response rating, Rice, Water Seeded, Flood ([10]; 64 g ai/ha): 0
Plant response rating, Rice, Water Seeded, Flood ([10]; 125 g ai/ha): 40
Plant response rating, Rice, Water Seeded, Flood ([10]; 250 g ai/ha): 70
Plant response rating, Rice, Water Seeded, Flood ([10]; 500 g ai/ha): 95
Plant response rating, Sprangletop, Brdd., Flood ([11]; 64 g ai/ha): 75
Plant response rating, Sprangletop, Brdd., Flood ([11]; 125 g ai/ha): 95
Plant response rating, Sprangletop, Brdd., Flood ([11]; 250 g ai/ha): 100
Plant response rating, Sprangletop, Brdd., Flood ([11]; 500 g ai/ha): 100
Plant response rating, Bulrush, Ricefield, Flood ([12]; 64 g ai/ha): 50
Plant response rating, Bulrush, Ricefield, Flood ([12]; 125 g ai/ha): 70
Plant response rating, Bulrush, Ricefield, Flood ([12]; 250 g ai/ha): 70
Plant response rating, Bulrush, Ricefield, Flood ([12]; 500 g ai/ha): 75
Plant response rating, Watergrass, Early, Flood ([13]; 64 g ai/ha): 20
Plant response rating, Watergrass, Early, Flood ([13]; 125 g ai/ha): 45
Plant response rating, Watergrass, Early, Flood ([13]; 250 g ai/ha): 65
Plant response rating, Watergrass, Early, Flood ([13]; 500 g ai/ha): 85
Plant response rating, Barnyardgrass, Flood ([14]; 64 g ai/ha, scale 0 to 100): 60
Plant response rating, Barnyardgrass, Flood ([14]; 125 g ai/ha, scale 0 to 100): 60
Plant response rating, Barnyardgrass, Flood ([14]; 250 g ai/ha, scale 0 to 100): 70
Plant response rating, Barnyardgrass, Flood ([14]; 500 g ai/ha, scale 0 to 100 (0 no effect, 100 complete control)): 85
Plant response rating, Flatsedge, Rice, Flood ([15]; 64 g ai/ha): 40
Plant response rating, Flatsedge, Rice, Flood ([15]; 125 g ai/ha): 40
Plant response rating, Flatsedge, Rice, Flood ([15]; 250 g ai/ha): 95
Plant response rating, Flatsedge, Rice, Flood ([15]; 500 g ai/ha): 100
Plant response rating, Ducksalad, Flood ([16]; 64 g ai/ha): 85
Plant response rating, Ducksalad, Flood ([16]; 125 g ai/ha): 95
Plant response rating, Ducksalad, Flood ([16]; 250 g ai/ha): 100
Plant response rating, Ducksalad, Flood ([16]; 500 g ai/ha): 100
Plant response rating, Watergrass, Late, Flood ([17]; 64 g ai/ha): 0
Plant response rating, Watergrass, Late, Flood ([17]; 125 g ai/ha): 45
Plant response rating, Watergrass, Late, Flood ([17]; 250 g ai/ha): 60
Plant response rating, Watergrass, Late, Flood ([17]; 500 g ai/ha): 55
Plant response rating, Junglerice, Flood ([18]; 64 g ai/ha): 0
Plant response rating, Junglerice, Flood ([18]; 125 g ai/ha): 50
Plant response rating, Junglerice, Flood ([18]; 250 g ai/ha): 65
Plant response rating, Junglerice, Flood ([18]; 500 g ai/ha): 80
